Laboratory results reported in US12599672B2, “KRAS proteolysis targeting chimeras” (PAQ Therapeutics Inc., priority 2023, dated 2026).

Columns and labels:
Assay type in all cases: cell-based
KRAS G12D = molecular target: T1, KRAS G12D (Homo sapiens, UniProt P01116, G12D); test: KRAS G12D HiBit assay; conditions: AsPc-1-KRAS (G12D)-HiBit-KI cell, compound treatment for 24 hours, absolute DC50
T1 construct: AsPc-1-KRAS (G12D)-HiBit-KI cell (Pharmaron); host or cells: AsPc-1-KRAS (G12D)-HiBit-KI cells (HiBiT knock-in at the endogenous KRAS locus)
Outline: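 HiBiT luminescence, detected by adding lytic buffer, substrate and LgBiT protein, served as the KRAS G12D read-out. Compounds, serially diluted 3-fold over 10 points from 0.3 mM DMSO stock, were on cells for 24 h; percent inhibition normalized to cells given 0.1% DMSO only.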

KRAS = molecular target: T2, KRAS (Homo sapiens, UniProt P01116); test: KRASamp MSD assay; conditions: KE39 (KRAS amplified) cells, treated with test compounds for 24 hr, MSD readout of KRAS degradation
T2 construct: endogenous in cells; host or cells: KE39 (KRAS amplified) cells
Outline: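 Degradation DC50 derived by curve fitting, with KRAS levels quantified by MSD electrochemiluminescence (capture/detection antibodies, recombinant WT KRAS standard). Lysates prepared from KE39 cells (KRAS amplified) exposed to test compounds for 24 hr.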

KRAS G12V = molecular target: T3, KRAS G12V (Homo sapiens, UniProt P01116, G12V); test: KRAS G12V HiBit assay; conditions: SW620-KRAS (G12V)-HiBit-KI cells, compound treatment for 24 hours
T3 construct: SW620-KRAS (G12V)-HiBit-KI cell (Pharmaron); host or cells: SW620-KRAS (G12V)-HiBit-KI cells (HiBiT knock-in at the endogenous KRAS locus)
Outline: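 Luminescence from lytic Nano-Glo HiBiT detection with LgBiT read KRAS G12V levels after 24 h compound exposure. Dilutions were 10-point, 3-fold, from a 0.3 mM DMSO stock. Degradation activity was normalised to cells given 0.1% DMSO alone.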

[1] = numeric bounds given in place of class symbols

T2 sequence (P01116 1-188 isoform P01116-2): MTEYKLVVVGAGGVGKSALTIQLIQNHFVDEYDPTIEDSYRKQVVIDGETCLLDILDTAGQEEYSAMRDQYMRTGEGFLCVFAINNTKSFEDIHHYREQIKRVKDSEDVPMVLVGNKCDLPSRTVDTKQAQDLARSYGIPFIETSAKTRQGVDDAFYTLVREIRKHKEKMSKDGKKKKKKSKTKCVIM
T3 sequence (P01116 1-188 isoform P01116-2 G12V): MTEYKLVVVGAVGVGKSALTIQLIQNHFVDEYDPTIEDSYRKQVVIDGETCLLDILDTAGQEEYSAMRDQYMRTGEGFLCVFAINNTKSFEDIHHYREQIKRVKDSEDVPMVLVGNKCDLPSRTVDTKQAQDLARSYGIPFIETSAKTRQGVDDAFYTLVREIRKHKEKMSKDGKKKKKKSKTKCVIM
T1 sequence (P01116 1-188 isoform P01116-2 G12D): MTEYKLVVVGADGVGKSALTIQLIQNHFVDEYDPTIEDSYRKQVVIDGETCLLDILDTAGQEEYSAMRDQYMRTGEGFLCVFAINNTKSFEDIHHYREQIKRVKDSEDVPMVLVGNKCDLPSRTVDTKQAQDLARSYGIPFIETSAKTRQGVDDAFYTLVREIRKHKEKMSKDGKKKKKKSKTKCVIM

Structure (SMILES)	DC50 (KRAS G12D; class symbols) [µM]	DC50 (KRAS) [µM]	DC50 (KRAS G12V; numeric bounds) [µM]	DC50 (KRAS G12D; [1]) [µM]	DC50 (KRAS G12V; class symbols) [µM]
C#Cc1c(F)ccc2cc(O)cc(-c3ncc4c(N5CCC[C@@](C)(O)C5)nc(OC[C@@]56CCCN5[C@@H](COC(=O)N5CCC(CN7CCC(c8ccc9c(c8)n(C)c(=O)n9C8CCC(=O)NC8=O)CC7)CC5)CC6)nc4c3F)c12 (stereo partly drawn) [Compound 140]	< 0.1	< 0.001	> 0.0389		
C#Cc1c(F)ccc2cccc(-c3ncc4c(N5CCC[C@@](C)(O)C5)nc(OC[C@]56CCCN5[C@H](COC(=O)N5CCC(CN7CCC(c8ccc9c(c8)n(C)c(=O)n9C8CCC(=O)NC8=O)CC7)CC5)CC6)nc4c3F)c12 (stereo partly drawn) [Compound 141]		< 0.001	> 0.0792	> 0.1	
CCc1cccc2cc(O)cc(-c3ncc4c(N5CCC[C@@](C)(O)C5)nc(OC[C@@]56CCCN5[C@H](COC(=O)N5CCC(CN7CCC(c8ccc9c(c8)n(C)c(=O)n9C8CCC(=O)NC8=O)CC7)CC5)CC6)nc4c3F)c12 (stereo partly drawn) [Compound 145]	< 0.1	0.001 to 0.01			< 0.01
CCc1c(F)ccc2cc(O)cc(-c3ncc4c(N5CCC[C@@](C)(O)C5)nc(OC[C@@]56CCCN5[C@H](COC(=O)c5ccc(CN7CCC(c8ccc9c(c8)n(C)c(=O)n9C8CCC(=O)NC8=O)CC7)cc5)CC6)nc4c3F)c12 (stereo partly drawn) [Compound 154]	< 0.1	< 0.001			< 0.01
C#Cc1c(F)ccc2cc(O)cc(-c3ncc4c(N5CCC[C@@](C)(O)C5)nc(OC[C@@]56CCCN5[C@H](COC(=O)N5CCC7(CC5)CC(N5CCC(c8ccc9c(c8)n(C)c(=O)n9C8CCC(=O)NC8=O)CC5)C7)CC6)nc4c3F)c12 (stereo partly drawn) [Compound 158, ((3S,7aS)-7a-(((7-(8-Ethynyl-7-fluoro-3-hydroxynaphthalen-1-yl)-8-fluoro-4-((R)-3-hydroxy-3-methylpiperidin-1-yl)pyrido[4,3-d]pyrimidin-2-yl)oxy)methyl)hexahydro-1H-pyrrolizin-3-yl)methyl-2-(4-(1-(2,6-dioxopiperidin-3-yl)-3-methyl-2-oxo-2,3-dihydro-1H-benzo[d]imidazol-5-yl)piperidin-1-yl)-7-azaspiro[3.5]nonane-7-carboxylate]	< 0.1	< 0.001			< 0.01
CCc1c(F)ccc2cc(O)cc(-c3ncc4c(N5CCC[C@@](C)(O)C5)nc(OC[C@]56CCCN5[C@H](COC(=O)N5CCC(COc7ccc8c(c7)n(C)c(=O)n8C7CCC(=O)NC7=O)CC5)CC6)nc4c3F)c12 (stereo partly drawn) [Compound 301, ((3S,7aR)-7a-(((7-(8-ethyl-7-fluoro-3-hydroxynaphthalen-1-yl)-8-fluoro-4-((R)-3-hydroxy-3-methylpiperidin-1-yl)pyrido[4,3-d]pyrimidin-2-yl)oxy)methyl)hexahydro-1H-pyrrolizin-3-yl)methyl 4-(((1-(2,6-dioxopiperidin-3-yl)-3-methyl-2-oxo-2,3-dihydro-1H-benzo[d]imidazol-5-yl)oxy)methyl)piperidine-1-carboxylate]	< 0.1	< 0.001			< 0.01
CCc1c(F)ccc2cc(O)cc(-c3ncc4c(N5CCC[C@@](C)(O)C5)nc(OC[C@]56CCCN5[C@H](COC(=O)N5CCC(CCCOc7ccc8c(c7)n(C)c(=O)n8C7CCC(=O)NC7=O)CC5)CC6)nc4c3F)c12 (stereo partly drawn) [Compound 302, ((3S,7aR)-7a-(((7-(8-ethyl-7-fluoro-3-hydroxynaphthalen-1-yl)-8-fluoro-4-((R)-3-hydroxy-3-methylpiperidin-1-yl)pyrido[4,3-d]pyrimidin-2-yl)oxy)methyl)hexahydro-1H-pyrrolizin-3-yl)methyl 4-(3-((1-(2,6-dioxopiperidin-3-yl)-3-methyl-2-oxo-2,3-dihydro-1H-benzo[d]imidazol-5-yl)oxy)propyl)piperidine-1-carboxylate]		< 0.001		> 0.1	< 0.01

The remaining lines, values ahead:

DC50 (KRAS G12D; class symbols) [µM]	DC50 (KRAS) [µM]	DC50 (KRAS G12V; numeric bounds) [µM]	DC50 (KRAS G12D; [1]) [µM]	DC50 (KRAS G12V; class symbols) [µM]	Structure (SMILES)
< 0.1	< 0.001			< 0.01	C#Cc1c(F)ccc2cc(O)cc(-c3ncc4c(N5CCC[C@@](C)(O)C5)nc(OC[C@@]56CCCN5[C@H](COC(=O)N5CCC(OC7CCN(c8ccc9c(c8)n(C)c(=O)n9C8CCC(=O)NC8=O)CC7)CC5)CC6)nc4c3F)c12 (stereo partly drawn) [Compound 155, ((3S,7aS)-7a-(((7-(8-Ethynyl-7-fluoro-3-hydroxynaphthalen-1-yl)-8-fluoro-4-((R)-3-hydroxy-3-methylpiperidin-1-yl)pyrido[4,3-d]pyrimidin-2-yl)oxy)methyl)hexahydro-1H-pyrrolizin-3-yl)methyl 4-((1-(1-(2,6-dioxopiperidin-3-yl)-3-methyl-2-oxo-2,3-dihydro-1H-benzo[d]imidazol-5-yl)piperidin-4-yl)oxy)piperidine-1-carboxylate]
< 0.1	< 0.001			< 0.01	CCc1c(F)ccc2cc(O)cc(-c3ncc4c(N5CCC[C@@](C)(O)C5)nc(OC[C@@]56CCCN5[C@H](COC(=O)N5CCC(F)(CN7CCC(c8ccc9c(c8)n(C)c(=O)n9C8CCC(=O)NC8=O)CC7)CC5)CC6)nc4c3F)c12 (stereo partly drawn) [Compound 156, ((3S,7AS)-7a-(((7-(8-ethyl-7-fluoro-3-hydroxynaphthalen-1-yl)-8-fluoro-4-((R)-3-hydroxy-3-methylpiperidin-1-yl)pyrido[4,3-d]pyrimidin-2-yl)oxy)methyl)hexahydro-1H-pyrrolizin-3-yl)methyl 4-((4-(1-(2,6-dioxopiperidin-3-yl)-3-methyl-2-oxo-2,3-dihydro-1H-benzo[d]imidazol-5-yl)piperidin-1-yl)methyl)-4-fluoropiperidine-1-carboxylate]
	< 0.001		> 0.1	< 0.01	CCc1c(F)ccc2cc(O)cc(-c3ncc4c(N5CCC[C@@](C)(O)C5)nc(OC[C@@]56CCCN5[C@H](COC(=O)N5CCC(C)(CN7CCC(c8ccc9c(c8)n(C)c(=O)n9C8CCC(=O)NC8=O)CC7)CC5)CC6)nc4c3F)c12 (stereo partly drawn) [Compound 157, ((3S,7aS)-7a-(((7-(8-Ethyl-7-fluoro-3-hydroxynaphthalen-1-yl)-8-fluoro-4-((R)-3-hydroxy-3-methylpiperidin-1-yl)pyrido[4,3-d]pyrimidin-2-yl)oxy)methyl)hexahydro-1H-pyrrolizin-3-yl)methyl 4-((4-(1-(2,6-dioxopiperidin-3-yl)-3-methyl-2-oxo-2,3-dihydro-1H-benzo[d]imidazol-5-yl)piperidin-1-yl)methyl)-4-methylpiperidine-1-carboxylate]
< 0.1	< 0.001			< 0.01	CCc1c(F)ccc2cc(O)cc(-c3ncc4c(N5CCC[C@@](C)(O)C5)nc(OC[C@@]56CCCN5[C@H](COC(=O)N5CCC7(CC5)CC(N5CCC(c8ccc9c(c8)n(C)c(=O)n9C8CCC(=O)NC8=O)CC5)C7)CC6)nc4c3F)c12 (stereo partly drawn) [Compound 159, ((3S,7aS)-7a-(((7-(8-Ethyl-7-fluoro-3-hydroxynaphthalen-1-yl)-8-fluoro-4-((R)-3-hydroxy-3-methylpiperidin-1-yl)pyrido[4,3-d]pyrimidin-2-yl)oxy)methyl)hexahydro-1H-pyrrolizin-3-yl)methyl2-(4-(1-(2,6-dioxopiperidin-3-yl)-3-methyl-2-oxo-2,3-dihydro-1H-benzo[d]imidazol-5-yl)piperidin-1-yl)-7-azaspiro[3.5]nonane-7-carboxylate]
< 0.1	< 0.001			< 0.01	CCc1c(F)ccc2cc(O)cc(-c3ncc4c(N5CCC[C@@](C)(O)C5)nc(OC[C@@]56CCCN5[C@H](COC(=O)N5CCC(OC7CCN(c8ccc9c(c8)n(C)c(=O)n9C8CCC(=O)NC8=O)CC7)CC5)CC6)nc4c3F)c12 (stereo partly drawn) [Compound 160, ((3S,7aS)-7a-(((7-(8-Ethyl-7-fluoro-3-hydroxynaphthalen-1-yl)-8-fluoro-4-((R)-3-hydroxyl-3-methylpiperidin-1-yl)pyrido[4,3-d]pyrimidin-2-yl)oxy)methyl)hexahydro-1H-pyrrolizin-3-yl)methyl 4-((1-(1-(2,6-dioxopiperidin-3-yl)-3-methyl-2-oxo-2,3-dihydro-1H-benzo[d]imidazol-5-yl)piperidin-4-yl)oxy)piperidine-1-carboxylate]
< 0.1	< 0.001			< 0.01	CCc1c(F)ccc2cc(O)cc(-c3ncc4c(N5CCC[C@@](C)(O)C5)nc(OC[C@]56CCCN5[C@H](COC(=O)N5CCC(CCOc7ccc8c(c7)n(C)c(=O)n8C7CCC(=O)NC7=O)CC5)CC6)nc4c3F)c12 (stereo partly drawn) [Compound 300, ((3S,7aR)-7a-(((7-(8-ethyl-7-fluoro-3-hydroxynaphthalen-1-yl)-8-fluoro-4-((R)-3-hydroxy-3-methylpiperidin-1-yl)pyrido[4,3-d]pyrimidin-2-yl)oxy)methyl)hexahydro-1H-pyrrolizin-3-yl)methyl 4-(2-((1-(2,6-dioxopiperidin-3-yl)-3-methyl-2-oxo-2,3-dihydro-1H-benzo[d]imidazol-5-yl)oxy)ethyl)piperidine-1-carboxylate]
